{
  "source": "patent US20070054353A1",
  "about": "“Nuclear receptor transcriptional corepressor and uses thereof” (priority 2002, published 2007)",
  "key": {"ERα LBD": {"target": "T1, ERα LBD (Homo sapiens, UniProt P03372)", "T1 construct": "the ERα LBD fused to GST (GST-ERα-LBD); made in house; LCoR by in vitro translation", "T1 sequence (P03372 311-547 limits assumed)": "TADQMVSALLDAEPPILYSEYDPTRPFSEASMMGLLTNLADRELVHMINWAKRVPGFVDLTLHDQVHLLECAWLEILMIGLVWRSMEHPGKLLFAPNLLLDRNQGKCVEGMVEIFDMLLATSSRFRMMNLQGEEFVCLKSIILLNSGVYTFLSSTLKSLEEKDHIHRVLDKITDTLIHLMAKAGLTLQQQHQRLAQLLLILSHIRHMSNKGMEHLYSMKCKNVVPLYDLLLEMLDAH", "assay": "GST pull-down of in vitro translated LCoR with GST-ERα LBD", "assay_type": "binding", "conditions": "ligand added to 10^−6 M"}, "[1]": {"target": "T2, interaction of LCoR and ERα (Homo sapiens, UniProt P03372)", "T2 construct": "expressed in transfected cells; host or cells: COS-7", "T2 sequence (P03372 1-595)": "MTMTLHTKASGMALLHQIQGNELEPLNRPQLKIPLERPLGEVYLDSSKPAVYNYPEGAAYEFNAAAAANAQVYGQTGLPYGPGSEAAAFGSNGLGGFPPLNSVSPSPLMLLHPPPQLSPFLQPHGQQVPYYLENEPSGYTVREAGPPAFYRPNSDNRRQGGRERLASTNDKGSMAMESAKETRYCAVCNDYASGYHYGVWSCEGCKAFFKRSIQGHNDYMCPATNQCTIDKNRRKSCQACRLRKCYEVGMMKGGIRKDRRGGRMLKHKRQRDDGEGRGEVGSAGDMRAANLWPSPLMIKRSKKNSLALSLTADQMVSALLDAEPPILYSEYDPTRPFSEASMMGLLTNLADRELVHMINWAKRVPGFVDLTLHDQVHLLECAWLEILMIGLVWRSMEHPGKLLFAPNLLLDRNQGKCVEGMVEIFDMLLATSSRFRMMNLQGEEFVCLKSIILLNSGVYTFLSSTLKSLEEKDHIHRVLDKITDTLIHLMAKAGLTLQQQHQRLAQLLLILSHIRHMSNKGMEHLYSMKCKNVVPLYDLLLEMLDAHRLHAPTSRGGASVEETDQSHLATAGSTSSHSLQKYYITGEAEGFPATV", "assay": "BRET assay of LCoR-ERα interaction in living COS-7 cells", "assay_type": "cell-based", "conditions": "10^−7M ligand, COS-7 cells cotransfected with ERα-EYFP and LCoR-rluc", "method": "Readings were started immediately after coelenterazine H addition, and 10 repeated measures were taken.\nInteraction of ERα and LCoR in vivo was further tested by bioluminescence resonance energy transfer (BRET) in living COS-7 cells transiently cotransfected with plasmids expressing ERα-EYFP and LCoR-rluc fusion proteins. […] BRET ratios were calculated as described in experimental procedures."}, "CtBP1": {"target": "T3, CtBP1 (Homo sapiens, UniProt Q13363)", "T3 construct": "made in house; host or cells: CtBP1 by in vitro translation", "assay": "GST pull-down of in vitro translated CtBP1 with GST-LCoR", "assay_type": "binding", "method": "GST pull-down assays were performed as described (Eng, F.C.S. et al. (1998) J. Biol. Chem., 273, 28371-7), with the exception that assays performed with in vitro translated ER378 included two more washes made with the GST buffer containing 150 mM NaCl. For immunoprecipitations of tagged proteins, COS-7 cells in 100 mm dishes were transfected with 6 μg of HA-LCOR and/or 6 μg of HA-Flag-HDAC6 or with 6 μg of Flag-LCoR and/or 6 μg of HA-HDAC3 and pSG5 carrier. 48 h after transfection, cells were lysed 30 min at […] in 1 ml of JLB (20 mM Tris-HCl, pH8, 150 mM KCl, 10% glycerol, 0.1% IGEPAL CA-630, and complete protease inhibitor cocktail; Boehringer-Mannheim, Laval, Qc). Cell debris were pelleted by centrifugation (14,000 rpm, 5 min), and proteins immunoprecipitated from 600 μl of supernatant by incubation for 1 h at 4° C. with 4 μg of α-Flag M2 antibody or polyclonal anti-HDAC3, followed by overnight incubation with protein A+G agarose or protein-A agarose beads for anti-Flag, and anti-HDAC3, respectively. Beads were washed (3×) with JLB. Bound immunocomplexes were boiled in Laemmli buffer, separated by 10% SDS/PAGE, and blotted on PVDF membrane with α-Flag M2-peroxidase, α-HDAC3, α-HA-peroxidase (1:500), and detected by enhanced chemiluminescence (NEN Life Science Products, Boston, Mass.). […]"}, "HDAC6": {"test_system": "HDAC6", "assay": "ERα-dependent CAT reporter with LCoR and HDAC6 cotransfection in MCF-7 cells", "assay_type": "cell-based, human", "conditions": "estradiol 10 nM, TSA 500 nM, trapoxin 50 nM", "method": "All cells were cultured under the recommended conditions. For immunocytochemistry, COS-7 cells grown on collagen IV-treated microscope slides in 6-well plates in DMEM, supplemented with 10% FBS were transfected in medium without serum with 12.5 μl of lipofectamine 2000 (Invitrogen, Burlington, Ont.) containing 1 μg each of pSG5/LCoR and HA-Flag-HDAC6/pcDNA3. Medium was replaced 24 h after transfection and cells were prepared for immunocytochemistry after 48 h as described below. For immunoprecipitation of tagged proteins, MCF-7 cells in 100 mm dishes were transfected with 10 μl of lipofectamine containing 10 μg of pSG5 vectors containing Flag-LCoR, Flag-m1, Flag-m2 or Flag-m1+2. For analysis of the effects of HDACs 3 or 6 on LCoR corepression, COS-7 cells (60-70% confluent) grown in DMEM without phenol red, supplemented with 10% FBS on 6-well plates were transfected in medium without serum with lipofectamine 2000 (Invitrogen, Burlington, Ontario, Canada) with 100 ng of ERα expression vectors as indicated, 300 ng of LCoR/pSG5, 300 ng of HA-HDAC3/pCDNA3.1 or […], 250 ng of ERE3-TATA-CAT reporter plasmid, 250 ng of internal control vector pCMV-βgal, and pBluescript carrier DNA to 4 μg. Medium was replaced 18 hr after transfection by a medium containing charcoal-stripped serum and ligand (10 nM) for 30 hr, as indicated. […]"}},
  "note": "Where a SMILES comes first, the peptide text is derived from it. [ ]: non-standard residue; d: D form. Aoe = N[C@@H](CCCCCC(=O)[C@@H]1CO1)C(=O)O",
  "data": [
    {"compound": "4-hydroxytamoxifen", "values": [
      {"measurement": "induction of interaction of LCoR with ERα", "setting": "ERα LBD", "result": "did not induce interaction"},
      {"measurement": "effect on BRET ratio", "setting": "[1]", "result": "no significant effect"}
    ]},
    {"compound": "NC(=O)C1=CN([C@@H]2O[C@H](COP(=O)(O)OP(=O)(O)OC[C@H]3O[C@@H](n4cnc5c(N)ncnc54)[C@H](O)[C@@H]3O)[C@@H](O)[C@H]2O)C=CC1", "note": "[NADH]", "values": [
      {"measurement": "effect on interaction of CtBP1 with LCoR in vitro", "setting": "CtBP1", "result": "no effect"}
    ]},
    {"compound": "O=C1N[C@@H](Cc2ccccc2)C(=O)N2CCC[C@@H]2C(=O)N[C@@H](CCCCCC(=O)[C@@H]2CO2)C(=O)N[C@H]1Cc1ccccc1", "note": "[trapoxin] (cyclo(FF[dP][Aoe]))", "values": [
      {"measurement": "effect on HDAC6 repression / enhancement of LCoR corepression of ERα transactivation", "setting": "HDAC6", "result": "not"}
    ]}
  ]
}
